Assay: recombinant barcode read abundance after kanamycin selection (control-corrected) (log10(CPM+1)); higher = more efficient recombination; sequences stand for … in AGTGCAGAGAAAATCGGCCAGTTTTCTCTGCCTGCAGTCCGCATGCCGT…AGATTTATGCAGCGGACTGCCTTTCTCCCAAAGTGATAAACCGGACAGTATCATGGACCGGTTTTCCCGGTAATCCGTATTTGCAAGGTTGGTTTCACT; site = the 11-nt target
Outline: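 IS621 bridge RNA target-binding loops were paired with targets in a pooled library tested in E. coli. After co-electroporation with a donor plasmid, cells were plated in two replicates on chloramphenicol/ampicillin LB agar (control) and on chloramphenicol/ampicillin/kanamycin carrying 0.1 mM IPTG. Barcodes at recombinant junctions were counted as counts per million, averaged and control-corrected to give recombination efficiency. Values are log10(CPM+1).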
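Note: IS621 recombinase and bridge RNA in Escherichia coli cells.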

Sequence	recombinant barcode read abundance (log10)
GACCGGGCTTGGGTTCTAACCTGTTGCCT (site GACCGAGCTAG)	0.092
GACCGGGCTTGGGTTCTAACCTGTTGCCT (site GACCGCGCTAG)	0.234
GACCGGGCTTGGGTTCTAACCTGTTGCCT (site GACCGGGCTAG)	0.592
GACCGGGCTTGGGTTCTAACCTGTTGCCT (site GACCGTGCTAG)	0.268
GACCGTCCTTGGGTTCTAACCTGTTGCAT (site GACCGTCCTAA)	0.167
GACCGTCCTTGGGTTCTAACCTGTTGCAT (site GACCGTCCTAC)	0.479
GACCGTCCTTGGGTTCTAACCTGTTGCAT (site GACCGTCCTAG)	0.54
GACCGTCCTTGGGTTCTAACCTGTTGCAT (site GACCGTCCTAT)	1.26
GACCGTCCTTGGGTTCTAACCTGTTGCCT (site GACCGTCCTAA)	0.0128
GACCGTCCTTGGGTTCTAACCTGTTGCCT (site GACCGTCCTAC)	0.1
GACCGTCCTTGGGTTCTAACCTGTTGCCT (site GACCGTCCTAG)	1
GACCGTCCTTGGGTTCTAACCTGTTGCCT (site GACCGTCCTAT)	0.263
GACGGATCTTGGGTTCTAACCTGTTGCAT (site GACGGATCTAA)	0.191
GACGGATCTTGGGTTCTAACCTGTTGCAT (site GACGGATCTAC)	0.269
GACGGATCTTGGGTTCTAACCTGTTGCAT (site GACGGATCTAG)	0.233
GACGGATCTTGGGTTCTAACCTGTTGCAT (site GACGGATCTAT)	1.09
GACGGATCTTGGGTTCTAACCTGTTGCGT (site GACGGATCTAA)	0.0403
GACGGATCTTGGGTTCTAACCTGTTGCGT (site GACGGATCTAC)	0.705
GACGGATCTTGGGTTCTAACCTGTTGCGT (site GACGGATCTAG)	0.569
GACGGATCTTGGGTTCTAACCTGTTGCGT (site GACGGATCTAT)	1.35
GACGGCACTTGGGTTCTAACCTGTTGCCT (site CGGCTACCTCC)	0.0844
GACGGCACTTGGGTTCTAACCTGTTGCCT (site GACGGCACTAG)	0.567

Sequence	recombinant barcode read abundance (log10)
GACGTGCCTTGGGTTCTAACCTGTTGCCG (site CTTAGTACTAT)	0.11
GACGTGCCTTGGGTTCTAACCTGTTGCCG (site GACGTGCCTCG)	1.77
GACTAAGCTTGGGTTCTAACCTGTTGCGG (site CTGGGGTCTAA)	0.0398
GACTAAGCTTGGGTTCTAACCTGTTGCGG (site GACTAAGCTCC)	2.39
GACTCTCCTTGGGTTCTAACCTGTTGCAG (site GACTCTCCTCA)	0.147
GACTCTCCTTGGGTTCTAACCTGTTGCAG (site GACTCTCCTCT)	0.0267
GACTGAGCTTGGGTTCTAACCTGTTGCGG (site AGACAGTCTTG)	0.046
GACTGAGCTTGGGTTCTAACCTGTTGCGG (site GACTGAGCTCC)	2.26
GACTGGGCTTGGGTTCTAACCTGTTGCTG (site GACTGGCCTAA)	0.239
GACTGGGCTTGGGTTCTAACCTGTTGCTG (site GACTGGGCTCA)	1.58
GACTGTCCTTGGGTTCTAACCTGTTGCGA (site GACCGTCCTTG)	0.372
GACTGTCCTTGGGTTCTAACCTGTTGCGA (site GACTGTCCTTC)	1.8
GACTGTTCTTGGGTTCTAACCTGTTGCCT (site GACTGTTCTAG)	0.13
GACTGTTCTTGGGTTCTAACCTGTTGCCT (site GCCTGTTCTAG)	0.0949
GACTGTTCTTGGGTTCTAACCTGTTGCCT (site GGCTGTTCTAG)	0.202
GACTGTTCTTGGGTTCTAACCTGTTGCCT (site GTCTGTTCTAG)	0.0588
GACTTGGCTTGGGTTCTAACCTGTTGCCT (site GACTTGACTAG)	0.0256
GACTTGGCTTGGGTTCTAACCTGTTGCCT (site GACTTGCCTAG)	0.146
GACTTGGCTTGGGTTCTAACCTGTTGCCT (site GACTTGGCTAG)	0.146
GACTTGGCTTGGGTTCTAACCTGTTGCCT (site GACTTGTCTAG)	0.124
GAGAAATCTTGGGTTCTAACCTGTTGCCT (site GAGAAATCTAG)	0.59
GAGAAATCTTGGGTTCTAACCTGTTGCCT (site GAGACATCTAG)	0.249

Sequence	recombinant barcode read abundance (log10)
GAGAAATCTTGGGTTCTAACCTGTTGCCT (site GAGAGATCTAG)	0.0526
GAGAAATCTTGGGTTCTAACCTGTTGCCT (site GAGATATCTAG)	0.0612
GAGAAGTCTTGGGTTCTAACCTGTTGCCT (site GAGAAGTCTAG)	1.93
GAGAAGTCTTGGGTTCTAACCTGTTGCCT (site GAGCAGTCTAG)	0.133
GAGAAGTCTTGGGTTCTAACCTGTTGCCT (site GAGGAGTCTAG)	0.115
GAGAAGTCTTGGGTTCTAACCTGTTGCCT (site GAGTAGTCTAG)	0.404
GAGACAGCTTGGGTTCTAACCTGTTGCCT (site GAAACAGCTAG)	0.367
GAGACAGCTTGGGTTCTAACCTGTTGCCT (site GACACAGCTAG)	0.0512
GAGACAGCTTGGGTTCTAACCTGTTGCCT (site GAGACAGCTAG)	1.54
GAGACAGCTTGGGTTCTAACCTGTTGCCT (site GATACAGCTAG)	0.504
GAGACGGCTTGGGTTCTAACCTGTTGCTT (site GAGACGGCTAA)	1.22
GAGACGGCTTGGGTTCTAACCTGTTGCTT (site GAGCCGGCTAA)	0.193
GAGACGGCTTGGGTTCTAACCTGTTGCTT (site GAGGCGGCTAA)	0.424
GAGACGGCTTGGGTTCTAACCTGTTGCTT (site GAGTCGGCTAA)	0.206
GAGACTCCTTGGGTTCTAACCTGTTGCAC (site GAGACTCCTCT)	0.437
GAGACTCCTTGGGTTCTAACCTGTTGCAC (site GAGACTCCTGT)	1.17
GAGACTCCTTGGGTTCTAACCTGTTGCAG (site GAGACTCCTCT)	0.956
GAGACTCCTTGGGTTCTAACCTGTTGCAG (site GAGACTCCTGT)	0.509
GAGACTCCTTGGGTTCTAACCTGTTGCTA (site GAGACTCCTTA)	0.392
GAGACTCCTTGGGTTCTAACCTGTTGCTA (site GCGACTCCTTA)	0.0503
GAGACTGCTTGGGTTCTAACCTGTTGCCT (site GAAACTGCTAG)	0.291
GAGACTGCTTGGGTTCTAACCTGTTGCCT (site GACACTGCTAG)	0.068

Sequence	recombinant barcode read abundance (log10)
GAGACTGCTTGGGTTCTAACCTGTTGCCT (site GAGACTGCTAG)	0.865
GAGACTGCTTGGGTTCTAACCTGTTGCCT (site GATACTGCTAG)	0.0802
GAGAGCACTTGGGTTCTAACCTGTTGCCA (site GAGAGCACTTG)	1.23
GAGAGCACTTGGGTTCTAACCTGTTGCCA (site GAGGGCACTTG)	0.329
GAGAGGACTTGGGTTCTAACCTGTTGCTT (site GAGAGGACTAA)	1.86
GAGAGGACTTGGGTTCTAACCTGTTGCTT (site GATAGAACTAA)	0.0753
GAGATATCTTGGGTTCTAACCTGTTGCCT (site GAGAAATCTAG)	0.223
GAGATATCTTGGGTTCTAACCTGTTGCCT (site GAGACATCTAG)	0.339
GAGATATCTTGGGTTCTAACCTGTTGCCT (site GAGAGATCTAG)	0.217
GAGATATCTTGGGTTCTAACCTGTTGCCT (site GAGATATCTAG)	2.07
GAGATCCCTTGGGTTCTAACCTGTTGCCA (site GAGATCCCTTG)	1.22
GAGATCCCTTGGGTTCTAACCTGTTGCCA (site GGGGTCCCTTG)	0.235
GAGATCCCTTGGGTTCTAACCTGTTGCTA (site GAGATCCCTCA)	0.427
GAGATCCCTTGGGTTCTAACCTGTTGCTA (site GAGATCCCTTA)	1.93
GAGATCCCTTGGGTTCTAACCTGTTGCTG (site GAGATCCCTCA)	2.37
GAGATCCCTTGGGTTCTAACCTGTTGCTG (site GAGATCCCTTA)	0.188
GAGATGACTTGGGTTCTAACCTGTTGCGG (site GAGACGACTCG)	0.0565
GAGATGACTTGGGTTCTAACCTGTTGCGG (site GAGATGACTCC)	2.29
GAGCAACCTTGGGTTCTAACCTGTTGCCG (site GAGCAACCTCG)	1.07
GAGCAACCTTGGGTTCTAACCTGTTGCCG (site GAGCCACCTTG)	0.017

From the supplement of paper PMC11208160
